Earlier results as cited in patent US20250032538A1, “METHOD AND COMPOSITION FOR RESTORING HOMEOSTASIS, TREATING, AND PREVENTING DEGENERATIVE DISEASES, ACHIEVING ANTI-AGING EFFECT” (Vector Vitale IP LLC, priority 2023, published 2025).
Where two headings read alike, the source gives them in different places.

Experiments:
[1] = test system: rats; settings: rat, in vivo
[2] = test system: rats

Row | Compound | carcinogenicity: lung tumors [1] | half lethal dose (LD50) ([2]; intraperitoneal) | half lethal dose (LD50) ([2]; oral administration)
1 | Titanium dioxide | increased lung tumors |  | 
2 | [Cl-].[Cl-].[Cl-].[Sc+3] [scandium (III) chloride] |  | 4 mg/kg | 755 mg/kg
